Measured values reported in PubChem BioAssay (NCI).
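Where inhibition never reached the appropriate level, the endpoint shown equals the highest concentration tested. Otherwise, values were interpolated linearly from a five-concentration, 48-hour dose response in 96-well plates. GI50 = concentration required for 50% inhibition of growth. TGI denotes the concentration required for complete inhibition of growth.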

Tests used:
Test in all cases: NCI anticancer screen, dose series, 48 h
OVCAR-8 ovarian = test system: OVCAR-8 ovarian
SNB-19 CNS = test system: SNB-19 CNS
NCI-H226 lung = test system: NCI-H226 lung
U251 CNS = test system: U251 CNS
786-0 renal = test system: 786-0 renal
BT-549 breast = test system: BT-549 breast
NCI/ADR-RES ovarian = test system: NCI/ADR-RES ovarian
MDA-MB-435 = test system: MDA-MB-435
MCF7 breast = test system: MCF7 breast
IGROV1 ovarian = test system: IGROV1 ovarian

Compound | TGI (OVCAR-8 ovarian) [µM] | TGI (SNB-19 CNS) [µM] | TGI (NCI-H226 lung) [µM] | TGI (U251 CNS) [µM] | TGI (786-0 renal) [µM] | GI50 (BT-549 breast) [µM] | TGI (BT-549 breast) [µM] | GI50 (NCI/ADR-RES ovarian) [µM] | TGI (NCI/ADR-RES ovarian) [µM] | GI50 (MDA-MB-435) [µM] | TGI (MDA-MB-435) [µM] | GI50 (OVCAR-8 ovarian) [µM] | GI50 (SNB-19 CNS) [µM] | GI50 (NCI-H226 lung) [µM] | GI50 (MCF7 breast) [µM] | TGI (MCF7 breast) [µM] | GI50 (U251 CNS) [µM] | GI50 (IGROV1 ovarian) [µM] | TGI (IGROV1 ovarian) [µM] | GI50 (786-0 renal) [µM]
N#C/C(=C/c1cccnc1)C(=O)c1ccccc1 | > 100 | > 100 | > 100 | > 100 | > 100 | – | – | – | – | – | – | – | – | – | – | – | – | – | – | –
Cc1cc(S(=O)(=O)Nc2nc3ccsc3c(=O)n2Cc2ccco2)c(S)cc1Cl | > 100 | > 100 | > 100 | > 100 | > 100 | > 100 | > 100 | > 100 | > 100 | > 100 | > 100 | > 100 | 99 | > 100 | > 100 | > 100 | 96.3 | > 100 | > 100 | > 100
O=C1c2ccccc2S(=O)(=O)N1CSC(=S)N1CCCC1 | > 100 | > 100 | > 100 | > 100 | > 100 | > 100 | > 100 | > 100 | > 100 | 99.7 | > 100 | > 100 | > 100 | > 100 | > 22.9 | > 100 | > 100 | 19 | > 100 | > 100
N#C/C(=C/C=C(\Cl)c1ccc(Cl)cc1)C(N)=O | 12.6 | 22.7 | 13.9 | 5.32 | 4.2 | 7 | 13.9 | 2.67 | 7.43 | 1.93 | 4.12 | 6.39 | 8.13 | 4.96 | 4.91 | > 100 | 2.29 | > 20 | > 100 | 1.87
CCCCn1c2c(c3ccccc3c1=O)C(=O)c1ccccc1-2 | > 100 | – | > 100 | > 100 | > 100 | – | > 100 | – | > 100 | – | > 100 | – | – | – | – | > 100 | – | – | > 100 | –
Cc1ccc(-c2ccc(Nc3c4ccccc4nc4ccccc34)cc2)cn1 | > 100 | > 100 | – | – | 3.42 | – | – | – | 65.6 | – | 16 | – | – | – | – | 8.91 | – | – | 18.4 | –
COc1ccc2nc(NCCCNCCO)c3sc4ccc(F)cc4c(=O)c3c2c1 | – | 3.2 | 3.49 | 3.38 | 2.82 | 12.8 | 31.7 | – | – | 1.66 | 3.1 | – | 1.7 | 1.74 | 1.79 | 3.53 | 1.62 | 1.25 | 2.63 | 1.38
N#Cc1c[nH]n2ccnc12 | > 100 | > 100 | > 100 | > 100 | > 100 | – | > 100 | – | > 100 | – | – | – | – | – | – | > 100 | – | – | > 100 | –
O=C1C(Cl)=C(Nc2ccc3cn[nH]c3c2)C(=O)c2ccccc21 | 3.01 | 3.33 | – | 2.58 | 3.21 | 1.5 | 2.82 | 1.62 | 3.42 | 1.51 | 2.83 | 1.52 | 1.66 | – | 1.09 | 2.58 | 1.31 | 0.198 | 2.02 | 1.81
O=C(CC/C(C/C(=N/O)c1ccc(F)cc1)=N/O)N(Cc1ccccc1)Cc1ccccc1 | > 100 | > 100 | > 100 | > 100 | > 100 | – | – | – | – | – | – | – | – | – | – | – | – | – | > 100 | –
CCc1cccc(CC)c1NC(=S)NC(=O)c1ccc(Br)cc1 | > 100 | > 100 | > 95.5 | > 100 | > 100 | – | – | – | > 100 | – | 83.5 | – | – | – | – | 71.7 | – | – | > 100 | –
CC1C=C(OC(=O)c2ccccc2)C(=O)C(n2cc(F)c(=O)n(C(=O)c3ccccc3)c2=O)O1 (centres undefined) | > 100 | > 100 | – | > 100 | > 100 | – | – | – | – | – | – | – | – | – | – | – | – | – | > 100 | –
Cc1ccc(S(=O)(=O)N2CCC3(C(/C=C/c4ccccc4)=Nc4ccccc43)C2c2ccccc2)cc1 (centres undefined) | > 100 | > 100 | > 100 | > 100 | > 100 | – | – | – | – | – | – | – | – | – | – | – | – | – | 24.6 | –
COC(=O)c1ccccc1NC(=O)C(=O)CC(=O)c1ccccc1NC1=CC(=O)C(=O)c2ccccc21 | 60.9 | 77.5 | 49.7 | 67.4 | 30.8 | – | 39.4 | – | – | – | 8.59 | – | – | – | – | 25.5 | – | – | > 59.6 | –
O=C1CC2CCCCC2=C1O (centres undefined) | > 100 | > 100 | – | > 100 | > 100 | – | – | – | – | – | – | – | – | – | – | – | – | – | > 100 | –
CN(C)c1ccc(/C=C2\CNC/C(=C\c3ccc(N(C)C)cc3)C2=O)cc1 | 43.7 | – | > 100 | 28.7 | 31.6 | – | – | – | – | – | – | – | – | – | – | – | – | – | 97.1 | –
Cc1cc(N(CCC#N)CCC#N)ccc1/C=C(\NC(=O)/C=C/c1ccccc1)NC(=O)Nc1ccc(Cl)cc1 | > 100 | > 100 | > 100 | 39.4 | > 100 | – | – | – | – | – | – | – | – | – | – | – | – | – | > 100 | –
N#C/C(=C\c1ccc(Br)cc1)n1nnc2cccc(F)c21 | 13.6 | 3.35 | 3.45 | 3.06 | 2.93 | 1.45 | 3.1 | 0.398 | 2.19 | 0.295 | 0.913 | 2.59 | 1.63 | 1.57 | 0.445 | 1.98 | 1.55 | – | – | 1.48
CCCCCCCCCCCCCC/C(C(=O)OC)=C(/O)C(=O)OCC | > 100 | > 100 | > 100 | 69.4 | 38.2 | – | – | – | – | – | – | – | – | – | – | – | – | – | > 100 | –
